The source made the active and inactive calls. The rule behind the calls is not given here.
How the values were obtained:
Nucleic Acid = assay: Binding affinity to salmon testes DNA assessed as occurrence of intercalative molecular complex by linear flow dichroism; format: nucleic-acid assay; settings: Salmonidae
HL-60 = assay: Antiproliferative activity against human HL60 cells after 72 hrs by trypan blue assay; format: functional, cell-based; settings: HL-60, 72 h
HeLa = assay: Antiproliferative activity against human HeLa cells after 72 hrs by trypan blue assay; format: functional, cell-based
[1] = Antiproliferative activity against human JR8 cells after 72 hrs by trypan blue assay; format: functional, cell-based; settings: JR8, 72 h
[2] = target: DNA topoisomerase 2-alpha (Homo sapiens) (UniProt P11388); assay: Inhibition of human recombinant topoisomerase 2 assessed as induction of linear pBR322 DNA formation at 15 uM by agarose gel electrophoresis
[3] = target: DNA topoisomerase 2-alpha (Homo sapiens) (UniProt P11388); assay: Inhibition of human recombinant topoisomerase 2 catalytic activity at 20 uM by agarose gel electrophoresis
[4] = target: DNA topoisomerase 2-alpha (Homo sapiens) (UniProt P11388); assay: Inhibition of human recombinant topoisomerase 2 assessed as induction of linear pBR322 DNA formation at 50 uM by agarose gel electrophoresis
[5] = target: DNA topoisomerase 2-alpha (Homo sapiens) (UniProt P11388); assay: Inhibition of human recombinant topoisomerase 2 assessed as induction of linear pBR322 DNA formation upto 20 uM by agarose gel electrophoresis
[6] = target: DNA topoisomerase 2-alpha (Homo sapiens) (UniProt P11388); assay: Inhibition of human recombinant topoisomerase 2-mediated relaxation of supercoiled pBR322 DNA after 60 mins by agarose gel electrophoresis
[7] = target: DNA topoisomerase 2-alpha (Homo sapiens) (UniProt P11388); assay: Inhibition of human recombinant topoisomerase 2-mediated relaxation of supercoiled pBR322 DNA at 10 uM after 60 mins by agarose gel electrophoresis

DNA topoisomerase 2-alpha (Homo sapiens), sequence (P11388 whole entry): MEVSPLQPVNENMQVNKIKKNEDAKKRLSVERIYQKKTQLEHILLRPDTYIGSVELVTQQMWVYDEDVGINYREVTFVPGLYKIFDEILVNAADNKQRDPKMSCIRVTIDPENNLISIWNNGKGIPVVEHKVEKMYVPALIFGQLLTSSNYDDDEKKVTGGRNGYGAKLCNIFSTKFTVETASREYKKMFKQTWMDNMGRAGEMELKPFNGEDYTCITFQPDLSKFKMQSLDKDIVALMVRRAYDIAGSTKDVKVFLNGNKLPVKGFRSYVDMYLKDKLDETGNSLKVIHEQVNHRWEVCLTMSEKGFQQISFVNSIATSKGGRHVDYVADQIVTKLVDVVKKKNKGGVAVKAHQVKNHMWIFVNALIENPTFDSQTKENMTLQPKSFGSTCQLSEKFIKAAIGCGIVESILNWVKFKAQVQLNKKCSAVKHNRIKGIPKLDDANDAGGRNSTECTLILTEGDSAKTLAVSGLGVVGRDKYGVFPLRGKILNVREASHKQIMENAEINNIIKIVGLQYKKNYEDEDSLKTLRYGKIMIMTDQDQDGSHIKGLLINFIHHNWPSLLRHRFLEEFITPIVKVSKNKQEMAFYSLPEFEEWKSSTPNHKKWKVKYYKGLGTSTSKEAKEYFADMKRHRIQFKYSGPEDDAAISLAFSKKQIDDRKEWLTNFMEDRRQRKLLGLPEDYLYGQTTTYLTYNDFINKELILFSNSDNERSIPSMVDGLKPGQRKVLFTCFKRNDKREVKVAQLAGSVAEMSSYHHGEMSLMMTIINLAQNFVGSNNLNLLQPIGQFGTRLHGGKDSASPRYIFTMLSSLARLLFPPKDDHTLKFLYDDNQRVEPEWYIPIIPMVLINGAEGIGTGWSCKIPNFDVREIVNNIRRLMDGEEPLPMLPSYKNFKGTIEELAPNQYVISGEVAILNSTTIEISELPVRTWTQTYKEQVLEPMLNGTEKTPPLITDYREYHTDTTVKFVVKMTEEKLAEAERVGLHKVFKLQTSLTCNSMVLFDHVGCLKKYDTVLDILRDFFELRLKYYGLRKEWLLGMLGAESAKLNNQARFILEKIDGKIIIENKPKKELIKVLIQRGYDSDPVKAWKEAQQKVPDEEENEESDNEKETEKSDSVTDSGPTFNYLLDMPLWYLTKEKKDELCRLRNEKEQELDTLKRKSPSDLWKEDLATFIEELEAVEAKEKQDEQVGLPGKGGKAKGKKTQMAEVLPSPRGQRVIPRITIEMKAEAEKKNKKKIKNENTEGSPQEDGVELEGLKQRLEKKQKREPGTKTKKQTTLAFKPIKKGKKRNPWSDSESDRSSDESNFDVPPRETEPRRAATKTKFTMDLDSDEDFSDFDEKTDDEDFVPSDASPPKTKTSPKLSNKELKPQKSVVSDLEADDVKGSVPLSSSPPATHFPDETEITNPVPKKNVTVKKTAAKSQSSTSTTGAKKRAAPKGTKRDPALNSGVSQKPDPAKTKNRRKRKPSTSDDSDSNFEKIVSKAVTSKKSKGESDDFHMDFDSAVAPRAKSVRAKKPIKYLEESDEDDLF

Structure (SMILES)	Activity (Nucleic Acid)	IC50 (HL-60)	IC50 (HeLa)	IC50 [1]	Activity [2]	Activity [3]	Activity [4]	Activity [5]	Activity [6]	Activity [7]
O=C(/C=C/c1ccc[nH]1)c1ccccc1	inactive	> 20 µM	> 20 µM	> 20 µM						
COc1cc(NS(C)(=O)=O)ccc1Nc1c2ccccc2nc2ccccc12	Active				Active					
Cc1c2ccncc2c(C)c2c1[nH]c1ccccc12 [ELLIPTECINE]	Active			1.1 µM						
CC(=O)/C=C/c1ccccc1 [BUTENONE]	inactive									
CC(=O)/C=C/c1ccc(Nc2ccnc3ccc4[nH]ccc4c23)cc1	Active	2.3 µM	7 µM	1.6 µM		inactive	inactive	inactive	Dose-dependent effect	
O=C(/C=C/c1cccs1)c1ccc(Nc2ccnc3ccc4[nH]ccc4c23)cc1		3.2 µM	5.3 µM	2.1 µM						
O=C(/C=C/c1ccc[nH]1)c1ccc(Nc2ccnc3ccc4[nH]ccc4c23)cc1		5.6 µM	18.1 µM	3.3 µM						
O=C(/C=C/c1ccc([N+](=O)[O-])cc1)c1ccc(Nc2ccnc3ccc4[nH]ccc4c23)cc1		4.4 µM	10.4 µM	1.2 µM		Active	inactive	inactive	Dose-dependent effect	Active
O=C(/C=C/c1ccc([N+](=O)[O-])cc1)c1ccccc1	inactive	6 µM	> 20 µM	7.8 µM		inactive				
